Laboratory results: publication PMC9454942, “Novel AR/AR-V7 and Mnk1/2 Degrader, VNPP433-3β: Molecular Mechanisms of Action and Efficacy in AR-Overexpressing Castration Resistant Prostate Cancer In Vitro and In Vivo Models” (Cells, 2022)

Molecular target: T1, androgen receptor (AR) ligand binding domain (Homo sapiens, UniProt P10275)
T1 construct: recombinant human AR LBD
T1 sequence (P10275 669-920 limits assumed): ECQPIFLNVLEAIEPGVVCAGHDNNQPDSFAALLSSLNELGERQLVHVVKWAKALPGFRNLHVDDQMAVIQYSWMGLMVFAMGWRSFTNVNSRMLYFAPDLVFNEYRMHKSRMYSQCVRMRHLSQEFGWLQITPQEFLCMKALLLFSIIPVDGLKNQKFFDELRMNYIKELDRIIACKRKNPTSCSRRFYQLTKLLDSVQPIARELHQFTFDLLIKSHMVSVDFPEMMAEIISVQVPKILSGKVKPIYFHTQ
Assay: fluorescence spectroscopy titration with purified AR LBD; supported by CETSA in LNCaP cells

Structure (SMILES): C[C@]12CC[C@H](n3ccnc3)CC1=CC[C@@H]1[C@@H]2CC[C@]2(C)C(n3cnc4ccccc43)=CC[C@@H]12 [VNPP433-3β]
- Kd: 360 ± 30 nM
